Patent publication US20240317721A1, “PYRAZOLYL DERIVATIVES AS INHIBITORS OF THE KRAS MUTANT PROTEIN” (NOVARTIS AG, priority 2021, published 2024)

What follows are compounds tested against KRasG12C (M1-K169, biotinylated on the N-terminus) (Homo sapiens (Human), UniProt P01116, G12C) (assay: Covalent competition assay: scintillation proximity assay (SPA) quantifying covalent modification of KRASG12C). Details: competition with radiolabeled covalent probe (Compound B/Compound A), 2 hours incubation, 10 nM KRasG12C.
Format: binding
Outline: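 Test compounds compete with a radiolabeled covalent probe for modification of N-terminally biotinylated KRasG12C(M1-K169):GDP, final 10 nM protein, 25 nM radio-ligand, 475 nM unlabelled ligand, 2 h with agitation in 20 mM Tris-HCl pH 7.5, 150 mM NaCl, 0.1 mM MgCl2, 0.01% Tween-20.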
An IC50 of 8 nM was found for C=CC(=O)N1CC2(CC(n3nc(N4CC[C@@H](CN5CC(O)C(OC)C5)CC4(C)C)c(-c4c(Cl)c(Cl)cc5[nH]ncc45)c3C)C2)C1 (single isomer, unassigned) [Example 274b, 1-(6-(4-(5,6-dichloro-1H-indazol-4-yl)-3-((R)-4-(((3S*,4S*)-3-hydroxy-4-methoxypyrrolidin-1-yl)methyl)-2,2-dimethylpiperidin-1-yl)-5-methyl-1H-pyrazol-1-yl)-2-azaspiro[3.3]heptan-2-yl)prop-2-en-1-one] in this work.
An IC50 greater than 5000 nM was found for C=CC(=O)N1CC2(CC(n3nc(N4CC[C@@H](CN5CCN6C(=O)COC[C@@H]6C5)CC4(C)C)c(-c4c(Cl)c(Cl)cc5[nH]ncc45)c3C)C2)C1 (single isomer, unassigned) [Example 275a] in this work.
An IC50 of 7 nM was found for C=CC(=O)N1CC2(CC(n3nc(N4CC[C@@H](CN5CCN6C(=O)COC[C@@H]6C5)CC4(C)C)c(-c4c(Cl)c(Cl)cc5[nH]ncc45)c3C)C2)C1 (single isomer, unassigned) [Example 275b] in this work.
An IC50 of 3400 nM was found for C=CC(=O)N1CC2(CC(n3nc(N4CC[C@@H](CN5CCCC56CN(C(C)=O)C6)CC4(C)C)c(-c4c(Cl)c(Cl)cc5[nH]ncc45)c3C)C2)C1 (single isomer, unassigned) [Example 276a] in this work.
An IC50 of less than 5 nM was found for C=CC(=O)N1CC2(CC(n3nc(N4CC[C@@H](CN5CCCC56CN(C(C)=O)C6)CC4(C)C)c(-c4c(Cl)c(Cl)cc5[nH]ncc45)c3C)C2)C1 (single isomer, unassigned) [Example 276b] in this work.
An IC50 of 4500 nM was found for C=CC(=O)N1CC2(CC(n3nc(N4CC[C@@H](CN5CC6C5CCN6C5COC5)CC4(C)C)c(-c4c(Cl)c(Cl)cc5[nH]ncc45)c3C)C2)C1 (single isomer, unassigned) [Example 277a, 1-(6-(4-(5,6-dichloro-1H-indazol-4-yl)-3-((R)-2,2-dimethyl-4-(((1S*,5S*)-2-(oxetan-3-yl)-2,6-diazabicyclo[3.2.0]heptan-6-yl)methyl)piperidin-1-yl)-5-methyl-1H-pyrazol-1-yl)-2-azaspiro[3.3]heptan-2-yl)prop-2-en-1-one] in this work.
An IC50 of less than 5 nM was found for C=CC(=O)N1CC2(CC(n3nc(N4CC[C@@H](CN5CC6C5CCN6C5COC5)CC4(C)C)c(-c4c(Cl)c(Cl)cc5[nH]ncc45)c3C)C2)C1 (single isomer, unassigned) [Example 277b, 1-(6-(4-(5,6-dichloro-1H-indazol-4-yl)-3-((R)-2,2-dimethyl-4-(((1S*,5S*)-2-(oxetan-3-yl)-2,6-diazabicyclo[3.2.0]heptan-6-yl)methyl)piperidin-1-yl)-5-methyl-1H-pyrazol-1-yl)-2-azaspiro[3.3]heptan-2-yl)prop-2-en-1-one] in this work.
An IC50 greater than 5000 nM was found for C=CC(=O)N1CC2(CC(n3nc(N4CC[C@@H](CN5CC6C5CCN6C5COC5)CC4(C)C)c(-c4c(Cl)c(Cl)cc5[nH]ncc45)c3C)C2)C1 (single isomer, unassigned) [Example 278a, 1-(6-(4-(5,6-dichloro-1H-indazol-4-yl)-3-((R)-2,2-dimethyl-4-(((1S*,5S*)-2-(oxetan-3-yl)-2,6-diazabicyclo[3.2.0]heptan-6-yl)methyl)piperidin-1-yl)-5-methyl-1H-pyrazol-1-yl)-2-azaspiro[3.3]heptan-2-yl)prop-2-en-1-one] in this work.
An IC50 of 8 nM was found for C=CC(=O)N1CC2(CC(n3nc(N4CC[C@@H](CN5CC6C5CCN6C5COC5)CC4(C)C)c(-c4c(Cl)c(Cl)cc5[nH]ncc45)c3C)C2)C1 (single isomer, unassigned) [Example 278b, 1-(6-(4-(5,6-dichloro-1H-indazol-4-yl)-3-((R)-2,2-dimethyl-4-(((1S*,5S*)-2-(oxetan-3-yl)-2,6-diazabicyclo[3.2.0]heptan-6-yl)methyl)piperidin-1-yl)-5-methyl-1H-pyrazol-1-yl)-2-azaspiro[3.3]heptan-2-yl)prop-2-en-1-one] in this work.
An IC50 of 3800 nM was found for C=CC(=O)N1CC2(CC(n3nc(N4CC[C@@H](CN5CCN6CCOC[C@@H]6C5)CC4(C)C)c(-c4c(Cl)c(Cl)cc5[nH]ncc45)c3C)C2)C1 (single isomer, unassigned) [Example 279a] in this work.
An IC50 of 6 nM was found for C=CC(=O)N1CC2(CC(n3nc(N4CC[C@@H](CN5CCN6CCOC[C@@H]6C5)CC4(C)C)c(-c4c(Cl)c(Cl)cc5[nH]ncc45)c3C)C2)C1 (single isomer, unassigned) [Example 279b] in this work.
An IC50 greater than 5000 nM was found for C=CC(=O)N1CC2(CC(n3nc(N4CC[C@@H](CN5CCN(C6COC6)C6COCC65)CC4(C)C)c(-c4c(Cl)c(Cl)cc5[nH]ncc45)c3C)C2)C1 (single isomer, unassigned) [Example 280a, 1-(6-(4-(5,6-dichloro-1H-indazol-4-yl)-3-((R)-2,2-dimethyl-4-(((4aS*,7aR*)-4-(oxetan-3-yl)hexahydrofuro[3,4-b]pyrazin-1(2H)-yl)methyl)piperidin-1-yl)-5-methyl-1H-pyrazol-1-yl)-2-azaspiro[3.3]heptan-2-yl)prop-2-en-1-one] in this work.
An IC50 of 7 nM was found for C=CC(=O)N1CC2(CC(n3nc(N4CC[C@@H](CN5CCN(C6COC6)C6COCC65)CC4(C)C)c(-c4c(Cl)c(Cl)cc5[nH]ncc45)c3C)C2)C1 (single isomer, unassigned) [Example 280b, 1-(6-(4-(5,6-dichloro-1H-indazol-4-yl)-3-((R)-2,2-dimethyl-4-(((4aS*,7aR*)-4-(oxetan-3-yl)hexahydrofuro[3,4-b]pyrazin-1(2H)-yl)methyl)piperidin-1-yl)-5-methyl-1H-pyrazol-1-yl)-2-azaspiro[3.3]heptan-2-yl)prop-2-en-1-one] in this work.
An IC50 of 1670 nM was found for C=CC(=O)N1CC2(CC(n3nc(N4CC[C@@H](CN5CCN(C6COC6)C6COCC65)CC4(C)C)c(-c4c(Cl)c(Cl)cc5[nH]ncc45)c3C)C2)C1 (single isomer, unassigned) [Example 281a, 1-(6-(4-(5,6-dichloro-1H-indazol-4-yl)-3-((R)-2,2-dimethyl-4-(((4aS*,7aR*)-4-(oxetan-3-yl)hexahydrofuro[3,4-b]pyrazin-1(2H)-yl)methyl)piperidin-1-yl)-5-methyl-1H-pyrazol-1-yl)-2-azaspiro[3.3]heptan-2-yl)prop-2-en-1-one] in this work.
An IC50 of less than 5 nM was found for C=CC(=O)N1CC2(CC(n3nc(N4CC[C@@H](CN5CCN(C6COC6)C6COCC65)CC4(C)C)c(-c4c(Cl)c(Cl)cc5[nH]ncc45)c3C)C2)C1 (single isomer, unassigned) [Example 281b, 1-(6-(4-(5,6-dichloro-1H-indazol-4-yl)-3-((R)-2,2-dimethyl-4-(((4aS*,7aR*)-4-(oxetan-3-yl)hexahydrofuro[3,4-b]pyrazin-1(2H)-yl)methyl)piperidin-1-yl)-5-methyl-1H-pyrazol-1-yl)-2-azaspiro[3.3]heptan-2-yl)prop-2-en-1-one] in this work.
An IC50 of 1500 nM was found for C=CC(=O)N1CC2(CC(n3nc(N4CC[C@@H](CN(C5COC5)C5COC5)CC4(C)C)c(-c4c(Cl)c(Cl)cc5[nH]ncc45)c3C)C2)C1 (single isomer, unassigned) [Example 282a] in this work.
An IC50 of 7 nM was found for C=CC(=O)N1CC2(CC(n3nc(N4CC[C@@H](CN(C5COC5)C5COC5)CC4(C)C)c(-c4c(Cl)c(Cl)cc5[nH]ncc45)c3C)C2)C1 (single isomer, unassigned) [Example 282b] in this work.
An IC50 of 3000 nM was found for [2H]C1([2H])OC([2H])([2H])C([2H])([2H])N(C[C@@H]2CCN(c3nn(C4CC5(C4)CN(C(=O)C=C)C5)c(C)c3-c3c(Cl)c(Cl)cc4[nH]ncc34)C(C)(C)C2)C1([2H])[2H] (single isomer, unassigned) [Example 283a] in this work.
An IC50 of 8 nM was found for [2H]C1([2H])OC([2H])([2H])C([2H])([2H])N(C[C@@H]2CCN(c3nn(C4CC5(C4)CN(C(=O)C=C)C5)c(C)c3-c3c(Cl)c(Cl)cc4[nH]ncc34)C(C)(C)C2)C1([2H])[2H] (single isomer, unassigned) [Example 283b] in this work.
An IC50 of 1600 nM was found for C=CC(=O)N1CC2(CC(n3nc(N4CC[C@@H](CN5CC6(C5)CN(C)C(=O)O6)CC4(C)C)c(-c4c(Cl)c(Cl)cc5[nH]ncc45)c3C)C2)C1 (single isomer, unassigned) [Example 284a] in this work.
An IC50 of 8 nM was found for C=CC(=O)N1CC2(CC(n3nc(N4CC[C@@H](CN5CC6(C5)CN(C)C(=O)O6)CC4(C)C)c(-c4c(Cl)c(Cl)cc5[nH]ncc45)c3C)C2)C1 (single isomer, unassigned) [Example 284b] in this work.
An IC50 of 4600 nM was found for C=CC(=O)N1CC2(CC(n3nc(N4CC[C@@H](CN5CC6(CCCN6C(C)=O)C5)CC4(C)C)c(-c4c(Cl)c(Cl)cc5[nH]ncc45)c3C)C2)C1 (single isomer, unassigned) [Example 285a] in this work.
An IC50 of 7 nM was found for C=CC(=O)N1CC2(CC(n3nc(N4CC[C@@H](CN5CC6(CCCN6C(C)=O)C5)CC4(C)C)c(-c4c(Cl)c(Cl)cc5[nH]ncc45)c3C)C2)C1 (single isomer, unassigned) [Example 285b] in this work.
An IC50 of 1100 nM was found for C=CC(=O)N1CC2(CC(n3nc(N4CC[C@@H](CN5C[C@H](O)C[C@H]5COC)CC4(C)C)c(-c4c(Cl)c(Cl)cc5[nH]ncc45)c3C)C2)C1 (single isomer, unassigned) [Example 286a] in this work.
An IC50 of 7 nM was found for C=CC(=O)N1CC2(CC(n3nc(N4CC[C@@H](CN5C[C@H](O)C[C@H]5COC)CC4(C)C)c(-c4c(Cl)c(Cl)cc5[nH]ncc45)c3C)C2)C1 (single isomer, unassigned) [Example 286b] in this work.
An IC50 of 307 nM was found for C=CC(=O)N1CC2(CC(n3nc(N4CC[C@@H](CN5CCN6C[C@@H](O)C[C@@H]6C5)CC4(C)C)c(-c4c(Cl)c(Cl)cc5[nH]ncc45)c3C)C2)C1 (single isomer, unassigned) [Example 287a] in this work.
An IC50 of 9 nM was found for C=CC(=O)N1CC2(CC(n3nc(N4CC[C@@H](CN5CCN6C[C@@H](O)C[C@@H]6C5)CC4(C)C)c(-c4c(Cl)c(Cl)cc5[nH]ncc45)c3C)C2)C1 (single isomer, unassigned) [Example 287b] in this work.
An IC50 of 4900 nM was found for C=CC(=O)N1CC2(CC(n3nc(N4CC[C@@H](CN5CCN6CCOC[C@H]6C5)CC4(C)C)c(-c4c(Cl)c(Cl)cc5[nH]ncc45)c3C)C2)C1 (single isomer, unassigned) [Example 288a] in this work.
